The results in this text go back to patent publication US20260042762A1 (Kymera Therapeutics, Inc., priority 2018, published 2026).

This experiment concerns the target T1, MerTK (Homo sapiens, UniProt Q12866).
T1 construct: endogenous in cells; host or cells: Jurkat cells
T1 sequence (Q12866 21-999): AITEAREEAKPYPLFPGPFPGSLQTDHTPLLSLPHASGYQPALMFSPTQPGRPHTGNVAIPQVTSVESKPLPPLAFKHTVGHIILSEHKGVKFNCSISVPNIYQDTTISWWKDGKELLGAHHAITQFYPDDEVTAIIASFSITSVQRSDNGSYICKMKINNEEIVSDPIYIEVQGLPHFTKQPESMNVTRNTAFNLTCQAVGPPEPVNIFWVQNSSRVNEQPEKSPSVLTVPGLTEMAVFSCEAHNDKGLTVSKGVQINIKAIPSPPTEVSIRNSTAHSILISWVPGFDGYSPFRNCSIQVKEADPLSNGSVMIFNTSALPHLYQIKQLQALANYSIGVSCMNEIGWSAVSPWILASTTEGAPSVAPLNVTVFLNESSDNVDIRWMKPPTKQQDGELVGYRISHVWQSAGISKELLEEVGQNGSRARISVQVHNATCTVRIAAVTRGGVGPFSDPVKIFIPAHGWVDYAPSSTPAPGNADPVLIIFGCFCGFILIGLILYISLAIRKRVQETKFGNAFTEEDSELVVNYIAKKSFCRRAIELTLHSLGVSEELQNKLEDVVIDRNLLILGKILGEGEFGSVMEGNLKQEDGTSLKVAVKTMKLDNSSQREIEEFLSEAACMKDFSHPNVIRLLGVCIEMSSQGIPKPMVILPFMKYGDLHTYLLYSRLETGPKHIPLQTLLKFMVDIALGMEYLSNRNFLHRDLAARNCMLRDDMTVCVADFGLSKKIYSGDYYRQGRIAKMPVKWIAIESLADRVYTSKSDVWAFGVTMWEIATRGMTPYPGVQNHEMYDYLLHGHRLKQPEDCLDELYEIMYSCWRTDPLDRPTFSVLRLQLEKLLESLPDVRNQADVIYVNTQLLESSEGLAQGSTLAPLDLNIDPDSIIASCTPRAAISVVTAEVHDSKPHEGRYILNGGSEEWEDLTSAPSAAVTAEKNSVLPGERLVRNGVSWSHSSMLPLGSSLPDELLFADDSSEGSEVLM
In words: MerTk degradation in Jurkat cells (Western blot). Conditions: Jurkat, 4 h, 0.001-1 μM, 4 hour-incubation at 37° C., read-out: Jurkat Max % MerTK Degradation. The format is cell-based. The method, boiled down: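 MerTK degradation was read by near-infrared Western blot, normalized to actin, in BCA-quantified lysates of Jurkat cells exposed to 0.001-1 μM compound for 4 h at 37 °C.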
For `Cn1c(=O)n([C@H]2CCC(=O)NC2=O)c2ccc(CCCOCCOCCN3CCN(C[C@H]4CC[C@@H](c5cn([C@H]6CC[C@H](O)CC6)c6nc(NCCC(F)(F)F)ncc65)CC4)CC3)cc21` [I-153, 3-[3-methyl-2-oxo-5-(3-[2-[2-(4-[[(1s,4s)-4-[7-[trans-4-hydroxycyclohexyl]-2-[(3,3,3-trifluoropropyl)amino]pyrrolo[2,3-d]pyrimidin-5-yl]cyclohexyl]methyl]piperazin-1-yl)ethoxy]ethoxy]propyl)-1,3-benzodiazol-1-yl]piperidine-2,6-dione], the Dmax is over 50%.
Next, `Cn1c(=O)n([C@H]2CCC(=O)NC2=O)c2ccc(CCCOCCOCCN3CCN(C[C@H]4CC[C@H](c5cn([C@H]6CC[C@H](O)CC6)c6nc(NCCC(F)(F)F)ncc65)CC4)CC3)cc21` [I-154, 3-[3-methyl-2-oxo-5-(3-[2-[2-(4-[[(1r,4r)-4-[7-[trans-4-hydroxycyclohexyl]-2-[(3,3,3-trifluoropropyl)amino]pyrrolo[2,3-d]pyrimidin-5-y1]cyclohexyl]methyl]piperazin-1-y1)ethoxy]ethoxy]propyl)-1,3-benzodiazol-1-yl]piperidine-2,6-dione]: over 50%; `Cn1c(=O)n([C@H]2CCC(=O)NC2=O)c2ccc(CCOC3CCN(C4CCN(Cc5ccc(-c6cn([C@H]7CC[C@H](O)CC7)c7nc(NCCC(F)(F)F)ncc67)cc5)CC4)CC3)cc21` [I-155, 3-[3-methyl-2-oxo-5-[2-([1-[(4-[7-[trans-4-hydroxycyclohexy1]-2-[(3,3,3-trifluoropropyl)amino]pyrrolo[2,3-d]pyrimidin-5-yl]phenyl)methyl]-[1,4-bipiperidin]-4-yl]oxy)ethyl]-1,3-benzodiazol-1-yl]piperidine-2,6-dione; formic acid]: over 50%.
Next, `Cn1c(=O)n([C@H]2CCC(=O)NC2=O)c2ccc(CCCC3CN(C4CCN(Cc5ccc(-c6cn([C@H]7CC[C@H](O)CC7)c7nc(NCCC(F)(F)F)ncc67)cc5)CC4)C3)cc21` [I-156, 3-[3-methyl-2-oxo-5-[3-(1-[1-[(4-[7-[trans-4-hydroxycyclohexy1]-2-[(3,3,3-trifluoropropyl)amino]pyrrolo[2,3-d]pyrimidin-5-y1]phenyl)methyl]piperidin-4-yl]azetidin-3-yl)propyl]-1,3-benzodiazol-1-yl]piperidine-2,6-dione; formic acid]: over 50%.
As to `Cn1c(=O)n([C@H]2CCC(=O)NC2=O)c2ccc(COC3CCN(C4CCN(Cc5ccc(-c6cn([C@H]7CC[C@H](O)CC7)c7nc(NCCC(F)(F)F)ncc67)cc5)CC4)CC3)cc21` [I-157, 3-[3-methyl-2-oxo-5-[([1-[(4-[7-[trans-4-hydroxycyclohexy1]-2-[(3,3,3-trifluoropropyl)amino]pyrrolo[2,3-d]pyrimidin-5-yl]phenyl)methyl]-[1,4-bipiperidin]-4-yl]oxy)methyl]-1,3-benzodiazol-1-y1]piperidine-2,6-dione; formic acid], the Dmax was over 50%.
On to `Cn1c(=O)n(C2CCC(=O)NC2=O)c2ccc(CN3CCN([C@H]4CCN(Cc5ccc(-c6cn([C@H]7CC[C@H](O)CC7)c7nc(NCCC(F)(F)F)ncc67)cc5)C4)CC3)cc21` (stereo partly drawn) [I-158, 3-[3-methyl-2-oxo-5-([4-[(3R)-1-[(4-[7-[trans-4-hydroxycyclohexy1]-2-[(3,3,3-trifluoropropyl)amino]pyrrolo[2,3-d]pyrimidin-5-y1]phenyl)methyl]pyrrolidin-3-y1]piperazin-1-yl]methyl)-1,3-benzodiazol-1-yl]piperidine-2,6-dione], for which the Dmax is over 50%.
Next, `Cn1c(=O)n([C@H]2CCC(=O)NC2=O)c2cccc(CN3CCC(CC4CCN(Cc5ccc(-c6cn([C@H]7CC[C@H](O)CC7)c7nc(NCCC(F)(F)F)ncc67)cc5)CC4)CC3)c21` [I-159, 3-(3-methyl-2-oxo-4-[[4-([1-[(4-[7-[trans-4-hydroxycyclohexy1]-2-[(3,3,3-trifluoropropyl)amino]pyrrolo[2,3-d]pyrimidin-5-y1]phenyl)methyl]piperidin-4-y1]methyl)piperidin-1-yl]methyl]-1,3-benzodiazol-1-yl)piperidine-2,6-dione]: over 50%; `Cn1c(=O)n(C2CCC(=O)NC2=O)c2ccc(CCCOCC(F)CN3CCN(Cc4ccc(-c5cn([C@H]6CC[C@H](O)CC6)c6nc(NCCC(F)(F)F)ncc56)cc4)CC3)cc21` (stereo partly drawn) [I-160, 3-[5-[3-(2-fluoro-3-[4-[(4-[7-[trans-4-hydroxycyclohexy1]-2-[(3,3,3-trifluoropropyl)amino]pyrrolo[2,3-d]pyrimidin-5-yl]phenyl)methyl]piperazin-1-yl]propoxy)propyl]-3-methyl-2-oxo-1,3-benzodiazol-1-yl]piperidine-2,6-dione]: over 50%.
Next, `Cc1ncsc1-c1ccc(CNC(=O)[C@@H]2C[C@@H](O)CN2C(=O)[C@@H](NC(=O)CCCCCN2CCN(Cc3ccc(-c4cn([C@H]5CC[C@H](O)CC5)c5nc(NCCC(F)(F)F)ncc45)cc3)CC2)C(C)(C)C)cc1` [I-161, (2S,4R)-1-[(2S)-3,3-dimethyl-2-(6-[4-[(4-[7-[trans-4-hydroxycyclohexyl]-2-[(3,3,3-trifluoropropyl)amino]pyrrolo[2,3-d]pyrimidin-5-yl]phenyl)methyl]piperazin-1-yl]hexanamido)butanoyl]-4-hydroxy-N-[[4-(4-methyl-1,3-thiazol-5-yl)phenyl]methyl]pyrrolidine-2-carboxamide]: under 20%; `Cc1ncsc1-c1ccc(CNC(=O)[C@@H]2C[C@@H](O)CN2C(=O)[C@@H](NC(=O)CCCCCCN2CCN(Cc3ccc(-c4cn([C@H]5CC[C@H](O)CC5)c5nc(NCCC(F)(F)F)ncc45)cc3)CC2)C(C)(C)C)cc1` [I-162, (2S,4R)-1-[(2S)-3,3-dimethyl-2-(7-[4-[(4-[7-[trans-4-hydroxycyclohexyl]-2-[(3,3,3-trifluoropropyl)amino]pyrrolo[2,3-d]pyrimidin-5-yl]phenyl)methyl]piperazin-1-yl]heptanamido)butanoyl]-4-hydroxy-N-[[4-(4-methyl-1,3-thiazol-5-yl)phenyl]methyl]pyrrolidine-2-carboxamide]: under 20%.
Next, `Cn1c(=O)n([C@H]2CCC(=O)NC2=O)c2ccc(CCCOCCOC3CCN(C[C@H]4CC[C@H](c5cn([C@H]6CC[C@H](O)CC6)c6nc(NCCC(F)(F)F)ncc65)CC4)CC3)cc21` [I-163]: over 50%.
For `Cn1c(=O)n([C@H]2CCC(=O)NC2=O)c2ccc(CCCOCCOCCC3CCN(C[C@H]4CC[C@H](c5cn([C@H]6CC[C@H](O)CC6)c6nc(NCCC(F)(F)F)ncc65)CC4)CC3)cc21` [I-164, 3-[3-methyl-2-oxo-5-(3-[2-[2-(1-[[trans-4-[7-[trans-4-hydroxycyclohexyl]-2-[(3,3,3-trifluoropropyl)amino]pyrrolo[2,3-d]pyrimidin-5-yl]cyclohexyl]methyl]piperidin-4-yl)ethoxy]ethoxy]propyl)-1,3-benzodiazol-1-y1]piperidine-2,6-dione], the Dmax was over 50%.
With `Cc1ncsc1-c1ccc(CNC(=O)[C@@H]2C[C@@H](O)CN2C(=O)[C@@H](NC(=O)COCCOCCN2CCN(Cc3ccc(-c4cn([C@H]5CC[C@H](O)CC5)c5nc(NCCC(F)(F)F)ncc45)cc3)CC2)C(C)(C)C)cc1` [I-165, (2S,4R)-1-[(2S)-3,3-dimethyl-2-[2-[2-(2-[4-[(4-[7-[trans-4-hydroxycyclohexyl]-2-[(3,3,3-trifluoropropyl)amino]pyrrolo[2,3-d]pyrimidin-5-yl]phenyl)methyl]piperazin-1-yl]ethoxy)ethoxy]acetamido]butanoyl]-4-hydroxy-N-[[4-(4-methyl-1,3-thiazol-5-yl)phenyl]methyl]pyrrolidine-2-carboxamide], the Dmax was under 20%.
Next, `Cc1ncsc1-c1ccc(CNC(=O)[C@@H]2C[C@@H](O)CN2C(=O)[C@@H](NC(=O)COCCOCCOCCN2CCN(Cc3ccc(-c4cn([C@H]5CC[C@H](O)CC5)c5nc(NCCC(F)(F)F)ncc45)cc3)CC2)C(C)(C)C)cc1` [I-166, (2S,4R)-1-[(2S)-3,3-dimethyl-2-(2-[2-[2-(2-[4-[(4-[7-[trans-4-hydroxycyclohexyl]-2-[(3,3,3-trifluoropropyl)amino]pyrrolo[2,3-d]pyrimidin-5-yl]phenyl)methyl]piperazin-1-yl]ethoxy)ethoxy]ethoxy]acetamido)butanoyl]-4-hydroxy-N-[[4-(4-methyl-1,3-thiazol-5-yl)phenyl]methyl]pyrrolidine-2-carboxamide]: over 50%.
